Patent US20240335390A9, “PHARMACEUTICAL COMPOSITIONS OF AMORPHOUS SOLID DISPERSIONS AND METHODS OF PREPARATION THEREOF” (Shenzhen Pharmacin Co., Ltd., priority 2020, published 2024)
Like-named read-outs stand apart in the source and are kept apart here.

How the values were obtained:
[1] = cited from earlier work
[2] = Kinetic solubility of neratinib maleate ASD powders, pH 4.0 phthalic acid buffer; format: physicochemical; details: pH 4.0 phthalic acid buffer solution, 37 °C, pH 4, aqueous buffer, thermodynamic from solid; crystalline
[3] = cited from earlier work; remark: listed apart in the source
AKT signaling pathway = details: in vitro; cited from earlier work
HER2 autophosphorylation = details: in vitro; cited from earlier work
MAPK signaling pathway = details: in vitro; cited from earlier work
EGFR autophosphorylation = details: in vitro; cited from earlier work
[4] = test system: EGFR and/or HER2 expressing carcinoma cell lines; details: in vitro; cited from earlier work
[5] = second value listed in the cell

Compound	Measured or Calculated pKas ([1]; first value listed in the cell)	Measured or Calculated pKas [1, 5]	other results
CN1C[C@@H]2C[C@H]1CN2c1cc2c(cc1F)c(=O)c(C(=O)O)cn2C1CC1 [Danofloxacin]	6.07 ± 0.06	8.56 ± 0.07	
C=C1c2c(Cl)ccc(O)c2C(=O)C2=C(O)[C@]3(O)C(=O)C(C(N)=O)=C(O)[C@@H](N(C)C)[C@@H]3[C@@H](O)[C@H]12 [Meclocycline]	4.05 ± 0.30	6.87 ± 0.39	
O=C(O)c1cn(-c2ccc(F)cc2)c2cc(N3CCNCC3)c(F)cc2c1=O [Sarafloxacin]	5.62 ± 0.08	8.18 ± 0.09	
Cc1nc(NC(=O)N2CCC[C@H]2C(N)=O)sc1-c1ccnc(C(C)(C)C(F)(F)F)c1 [Alpelisib]	3.3	9.4	
CNC(=O)c1ccc(N2C(=S)N(c3ccc(C#N)c(C(F)(F)F)c3)C(=O)C2(C)C)cc1F [Enzalutamide]	3-11		
CN1CCN(c2c(F)cc3c(=O)c(C(=O)O)cn4c3c2OCN4C)CC1 [Marbofloxacin]	5.69 ± 0.10	8.02 ± 0.20	
Cn1cc(-c2cc3c(N4CCN(c5ncc([C@@](C)(N)c6ccc(F)cc6)cn5)CC4)ncnn3c2)cn1 [Avapritinib]	6.97	4.57	Measured or Calculated pKas ([1]; fourth value listed in the cell): 1.51; Measured or Calculated pKas ([1]; third value listed in the cell): 3.50
O=C(O)Cc1ccccc1Nc1c(Cl)cccc1Cl [Diclofenac]	4.16		
C[C@H]1c2cccc(O)c2C(=O)C2=C(O)[C@]3(O)C(=O)C(C(N)=O)=C(O)[C@@H](N(C)C)[C@@H]3[C@@H](O)[C@@H]21 [Doxycycline]	3.02 ± 0.30	7.97 ± 0.15	
Cc1ccc(Nc2nccc(N(C)c3ccc4c(C)n(C)nc4c3)n2)cc1S(N)(=O)=O.Cl [Pazopanib HCL]	2.1	6.4	Measured or Calculated pKas ([1]; third value listed in the cell): 10.2
Cc1nnc(NS(=O)(=O)c2ccc(N)cc2)s1 [Sulfamethizole]	1.86 ± 0.30	5.29 ± 0.04	
CC(C)Cc1ccc(C(C)C(=O)O)cc1 (stereo not drawn) [Ibuprofen]	4.51		
CC(C(=O)O)c1ccc(-c2ccccc2)c(F)c1 (stereo not drawn) [Flurbiprofen]	4.35		
CCC(C(=O)O)c1ccc(CC(C)C)cc1 (stereo not drawn) [Butibufen]	4.64		
C=CCOc1ccccc1OCC(O)CNC(C)C (stereo not drawn) [Oxprenolol]	9.62		
[H]/N=C(/N)NS(=O)(=O)c1ccc(N)cc1 [Sulfaguanidine]	1.55	11.24	
CC1COc2c(N3CCN(C)CC3)c(F)cc3c(=O)c(C(=O)O)cn1c23 (stereo not drawn) [Ofloxacin]	6.22 ± 0.05	7.81 ± 0.08	
CCn1cc(C(=O)O)c(=O)c2cc(F)c(N3CCNCC3)nc21 [Enoxacin]	5.05 ± 0.08	6.25 ± 0.05	
CC1(C)S[C@@H]2[C@H](NC(=O)[C@H](N)c3ccc(O)cc3)C(=O)N2[C@H]1C(=O)O [Amoxicillin]	3.39	6.71	
CC(C)NCC(O)COc1cccc2ccccc12 (stereo not drawn) [Propranolol]	9.49 ± 0.2		
CC(C)(C)NC[C@H](O)COc1nsnc1N1CCOCC1 [Timolol]	9.34		
Nc1ccc(S(=O)(=O)Nc2ncccn2)cc1 [Sulfadiazine]	2.10	6.28	
CCn1cc(C(=O)O)c(=O)c2cnc(N3CCNCC3)nc21 [Pipemidic acid]	5.42 ± 0.05	8.18 ± 0.09	
Nc1ccc(S(=O)(=O)Nc2nccs2)cc1 [Sulfathiazole]	2.08	7.07	
CC[C@H]1OC(=O)[C@H](C)[C@@H](O[C@H]2C[C@@](C)(OC)[C@@H](O)[C@H](C)O2)[C@H](C)[C@@H](O[C@@H]2O[C@H](C)C[C@H](N(C)C)[C@H]2O)[C@](C)(OC)C[C@@H](C)C(=O)[C@H](C)[C@@H](O)[C@]1(C)O [Clarithromycin]	7.25		

Compound	Measured or Calculated pKas ([1]; first value listed in the cell)	Measured or Calculated pKas [1, 5]	other results
CC(C(=O)O)c1ccc2c(c1)[nH]c1ccc(Cl)cc12 (stereo not drawn) [Carprofen]	4.63		
COc1cc2ncnc(Nc3ccc(F)c(Cl)c3)c2cc1OCCCN1CCOCC1 [Gefitinib]	7.2		
CCN(CC)CCOC(=O)c1ccc(N)cc1 [Procaine]	2.28 ± 0.08	9.02 ± 0.01	
CC(O)c1cc(C(=O)N[C@@H](C)Cn2ccc(-c3ccc(C#N)c(Cl)c3)n2)[nH]n1 (stereo partly drawn) [Darolutamide]	11.75		
Cc1ccnc(NS(=O)(=O)c2ccc(N)cc2)n1 [Sulfamerazine]	2.17	6.77	
Tylosin	3.31 ± 0.30	7.50 ± 0.13	
CN(C)[C@@H]1C(O)=C(C(N)=O)C(=O)[C@@]2(O)C(O)=C3C(=O)c4c(O)ccc(Cl)c4[C@@H](O)[C@H]3C[C@@H]12 [Demeclocycline]	3.37 ± 0.30	7.36 ± 0.03	
CN(C)[C@@H]1C(O)=C(C(N)=O)C(=O)[C@@]2(O)C(O)=C3C(=O)c4c(O)cccc4[C@@](C)(O)[C@H]3[C@H](O)[C@@H]12 [Oxytetracycline]	3.04	8.00	
CN1CCN(c2cc3c(cc2F)c(=O)c(C(=O)O)cn3-c2ccc(F)cc2)CC1 [Difloxacin]	5.66 ± 0.04	7.24 ± 0.06	
COc1cc(Cc2cnc(N)nc2N)cc(OC)c1OC [Trimethoprim]	3.23 ± 0.30	6.76 ± 0.12	
COc1ccc2[nH]c([S+]([O-])Cc3ncc(C)c(OC)c3C)nc2c1 (stereo not drawn) [Omeprazole]	4.14	8.90	
CN1CCN(c2c(F)cc3c(=O)c(C(=O)O)cn(CCF)c3c2F)CC1 [Fleroxacin]	5.46	8.00	
CC(CCc1ccccc1)NCC(O)c1ccc(O)c(C(N)=O)c1 (stereo not drawn) [Labetalol]	7.35		
CC(=O)NS(=O)(=O)c1ccc(N)cc1 [Sulfacetamide]	1.95 ± 0.11	5.30 ± 0.05	
CN(C)[C@@H]1C(O)=C(C(N)=O)C(=O)[C@@]2(O)C(O)=C3C(=O)c4c(O)ccc(Cl)c4[C@@](C)(O)[C@H]3C[C@@H]12 [Chlortetracycline]	3.33 ± 0.30	7.55 ± 0.02	
CC[C@H]1OC(=O)[C@H](C)[C@@H](OC2C[C@@](C)(OC)C(O)C(C)O2)[C@H](C)[C@@H](O[C@@H]2OC(C)CC(N(C)C)C2O)[C@](C)(O)C[C@@H](C)/C(=N\OCOCCOC)[C@H](C)[C@@H](O)[C@]1(C)O (stereo partly drawn) [Roxithromycin]	9.17 ± 0.30		
Nc1ccc(S(=O)(=O)Nc2ccc(Cl)nn2)cc1 [Sulfachlorpyridazine]	1.87 ± 0.30	5.45 ± 0.06	
CCN1CCN(c2cc3c(cc2F)c(=O)c(C(=O)O)cn3C2CC2)CC1 [Enrofloxacin]	5.88 ± 0.03	7.74 ± 0.03	
Fenbufen	4.56		
C#Cc1cccc(Nc2ncnc3cc(OCCOC)c(OCCOC)cc23)c1.Cl [Erlotinib]	5.4		
Cc1cc(C)nc(NS(=O)(=O)c2ccc(N)cc2)n1 [Sulfamethazine]	2.28	7.42	
CCOc1cc2ncc(C#N)c(Nc3ccc(OCc4ccccn4)c(Cl)c3)c2cc1NC(=O)/C=C/CN(C)C.O=C(O)/C=C\C(=O)O [Neratinib maleate, (E)-N-(4-((3-chloro-4-(pyridin-2-ylmethoxy)phenyl)amino)-3-cyano-7-ethoxyquinolin-6-yl)-4-(dimethylamino)but-2-enamide maleate]			solubility [2]: < 300 µg/mL; solubility ([3]; pH 1.2): 32.90 mg/mL; solubility according to the product label ([3]; pH 1.2): sparingly soluble; solubility according to the product label ([3]; pH 5.0): insoluble; solubility ([3]; pH approximately 5.0): ≤ 0.08 mg/mL
CC(=O)Nc1ccc(OCC(O)CNC(C)C)cc1 (stereo not drawn) [Practolol]	9.41		
CCOc1cc2ncc(C#N)c(Nc3ccc(OCc4ccccn4)c(Cl)c3)c2cc1NC(=O)/C=C/CN(C)C [Neratinib, neratinib]			downstream AKT signaling pathway (AKT signaling pathway): reduces; HER2 autophosphorylation (HER2 autophosphorylation): reduces; downstream MAPK signaling pathway (MAPK signaling pathway): reduces; EGFR autophosphorylation (EGFR autophosphorylation): reduces; antitumor activity in carcinoma cell lines [4]: showed antitumor activity
